Experimental data as given in the supplement of paper PMC13207355.

Columns and labels:
Conditions in all cases: exposure time: 72 h
E28 [1] = patient-derived glioblastoma stem cells of classical subtype; assay: phenotypic distance (Euclidean, principal components) from DMSO controls (arbitrary units); higher = stronger morphological change
E34 [2] = patient-derived glioblastoma stem cells of proneural subtype; assay: as above
FT3469 [3] = normal neural stem cell line; assay: as above
E57 [4] = patient-derived glioblastoma stem cells of mesenchymal subtype; assay: as above
E13 [5] = patient-derived glioblastoma stem cells of classical subtype; assay: as above
E31 [6] = patient-derived glioblastoma stem cells of proneural subtype; assay: as above
E21 [7] = patient-derived glioblastoma stem cells of mesenchymal subtype; assay: as above
E28 [8] = assay: surviving fraction (nuclei count normalised to DMSO); higher = more cells surviving (less toxic)
E34 [9] = assay: as above
FT3469 [10] = assay: as above
E57 [11] = assay: as above
E13 [12] = assay: as above
E31 [13] = assay: as above
E21 [14] = assay: as above
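Wherever phenotypic distance (Euclidean, principal components) from DMSO controls is given: cell Painting imaging in 384-well plates, CellProfiler features reduced to at least 20 principal components, Euclidean distance versus same-plate DMSO vehicle wells (0.1% v/v), median over six images per well.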
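Wherever surviving fraction (nuclei count normalised to DMSO) is given: nuclei counted by high-content imaging of Hoechst-stained cells in laminin-coated 384-well plates, relative to 0.1% DMSO vehicle wells, with staurosporine as cell-death control.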

C[C@H](Cc1cc2c(c(C(N)=O)c1)N(CCCO)CC2)NCCOc1ccccc1OCC(F)(F)F [Silodosin]
Conditions | phenotypic distance | surviving fraction
E13 [5], 4.1 nM | 0.445 | –
E13 [5], 12.3 nM | 0.872 | –
E13 [5], 37 nM | 0.863 | –
E13 [5], 111.1 nM | 0.966 | –
E13 [5], 333.3 nM | 0.915 | –
E13 [5], 1000 nM | 0.684 | –
E13 [5], 3000 nM | 0.641 | –
E13 [12], 4.1 nM | – | 0.879
E13 [12], 12.3 nM | – | 0.889
E13 [12], 37 nM | – | 0.914
E13 [12], 111.1 nM | – | 0.899
E13 [12], 333.3 nM | – | 0.859
E13 [12], 1000 nM | – | 0.9
E13 [12], 3000 nM | – | 0.93
E21 [7], 4.1 nM | 2.39 | –
E21 [7], 12.3 nM | 1.7 | –
E21 [7], 37 nM | 1.04 | –
E21 [7], 111.1 nM | 0.791 | –
E21 [7], 333.3 nM | 0.998 | –
E21 [7], 1000 nM | 0.539 | –
E21 [7], 3000 nM | 1.04 | –
E21 [14], 4.1 nM | – | 0.872
E21 [14], 12.3 nM | – | 0.94
E21 [14], 37 nM | – | 0.885
E21 [14], 111.1 nM | – | 0.958
E21 [14], 333.3 nM | – | 0.998
E21 [14], 1000 nM | – | 1.04
E21 [14], 3000 nM | – | 1.03
E28 [1], 4.1 nM | 0.716 | –
E28 [1], 12.3 nM | 0.594 | –
E28 [1], 37 nM | 0.634 | –
E28 [1], 111.1 nM | 0.795 | –
E28 [1], 333.3 nM | 0.798 | –
E28 [1], 1000 nM | 0.495 | –
E28 [1], 3000 nM | 0.823 | –
E28 [8], 4.1 nM | – | 0.896
E28 [8], 12.3 nM | – | 0.951
E28 [8], 37 nM | – | 0.935
E28 [8], 111.1 nM | – | 0.781
E28 [8], 333.3 nM | – | 0.941
E28 [8], 1000 nM | – | 0.892
E28 [8], 3000 nM | – | 0.877
E31 [6], 4.1 nM | 0.63 | –
E31 [6], 12.3 nM | 0.581 | –
E31 [6], 37 nM | 1.01 | –
E31 [6], 111.1 nM | 0.959 | –
E31 [6], 333.3 nM | 0.426 | –
E31 [6], 1000 nM | 0.534 | –
E31 [6], 3000 nM | 1.14 | –
E31 [13], 4.1 nM | – | 1.03
E31 [13], 12.3 nM | – | 0.873
E31 [13], 37 nM | – | 0.879
E31 [13], 111.1 nM | – | 0.922
E31 [13], 333.3 nM | – | 0.967
E31 [13], 1000 nM | – | 0.962
E31 [13], 3000 nM | – | 0.852
E34 [2], 4.1 nM | 1.06 | –
E34 [2], 12.3 nM | 0.76 | –
E34 [2], 37 nM | 0.492 | –
E34 [2], 111.1 nM | 2.26 | –
E34 [2], 333.3 nM | 0.348 | –
E34 [2], 1000 nM | 1.18 | –
E34 [2], 3000 nM | 1.12 | –
E34 [9], 4.1 nM | – | 0.923
E34 [9], 12.3 nM | – | 0.923
E34 [9], 37 nM | – | 0.82
E34 [9], 111.1 nM | – | 0.869
E34 [9], 333.3 nM | – | 0.932
E34 [9], 1000 nM | – | 0.863
E34 [9], 3000 nM | – | 0.802
E57 [4], 4.1 nM | 0.807 | –
E57 [4], 12.3 nM | 1.04 | –
E57 [4], 37 nM | 0.711 | –
E57 [4], 111.1 nM | 1.62 | –
E57 [4], 333.3 nM | 0.512 | –
E57 [4], 1000 nM | 0.794 | –
E57 [4], 3000 nM | 1.7 | –
E57 [11], 4.1 nM | – | 0.935
E57 [11], 12.3 nM | – | 0.844
E57 [11], 37 nM | – | 0.878
E57 [11], 111.1 nM | – | 0.843
E57 [11], 333.3 nM | – | 0.955
E57 [11], 1000 nM | – | 0.911
E57 [11], 3000 nM | – | 0.792
FT3469 [3], 4.1 nM | 1.28 | –
FT3469 [3], 12.3 nM | 0.608 | –
FT3469 [3], 37 nM | 0.869 | –
FT3469 [3], 111.1 nM | 0.648 | –
FT3469 [3], 333.3 nM | 1.02 | –
FT3469 [3], 1000 nM | 0.845 | –
FT3469 [3], 3000 nM | 1.05 | –
FT3469 [10], 4.1 nM | – | 0.874
FT3469 [10], 12.3 nM | – | 0.91
FT3469 [10], 37 nM | – | 1.05
FT3469 [10], 111.1 nM | – | 0.959
FT3469 [10], 333.3 nM | – | 0.939
FT3469 [10], 1000 nM | – | 0.815
FT3469 [10], 3000 nM | – | 0.925
